Laboratory results: article PMC10046037, “GABRG2 Variants Associated with Febrile Seizures” (Biomolecules, 2023)

Experiments:
Type in all cases: cell-based
Conditions in all cases: mean
[1] = biological target: T1, α1β3γ2 GABAA receptor, γ2R224X variant (Homo sapiens, UniProt P14867+P28472); assay: Automated patch clamp of GABA-elicited currents (SyncroPatch 384PE), γ2R224X
T1 construct: expressed in transfected cells; host or cells: HEK293T
T1 sequence (P14867 28-456): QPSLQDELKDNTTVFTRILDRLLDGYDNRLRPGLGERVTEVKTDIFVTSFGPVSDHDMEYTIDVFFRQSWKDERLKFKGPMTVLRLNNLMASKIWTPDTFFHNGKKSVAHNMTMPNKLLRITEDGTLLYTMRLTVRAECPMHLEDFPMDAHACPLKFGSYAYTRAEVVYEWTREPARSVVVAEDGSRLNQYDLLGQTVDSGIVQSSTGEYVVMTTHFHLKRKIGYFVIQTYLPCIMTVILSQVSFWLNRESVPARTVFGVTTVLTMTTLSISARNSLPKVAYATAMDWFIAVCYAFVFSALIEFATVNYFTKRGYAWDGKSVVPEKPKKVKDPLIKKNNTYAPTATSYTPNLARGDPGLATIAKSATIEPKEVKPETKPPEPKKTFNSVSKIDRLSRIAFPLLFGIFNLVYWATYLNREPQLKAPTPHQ
T1 sequence (P28472 1-473 isoform P28472-2): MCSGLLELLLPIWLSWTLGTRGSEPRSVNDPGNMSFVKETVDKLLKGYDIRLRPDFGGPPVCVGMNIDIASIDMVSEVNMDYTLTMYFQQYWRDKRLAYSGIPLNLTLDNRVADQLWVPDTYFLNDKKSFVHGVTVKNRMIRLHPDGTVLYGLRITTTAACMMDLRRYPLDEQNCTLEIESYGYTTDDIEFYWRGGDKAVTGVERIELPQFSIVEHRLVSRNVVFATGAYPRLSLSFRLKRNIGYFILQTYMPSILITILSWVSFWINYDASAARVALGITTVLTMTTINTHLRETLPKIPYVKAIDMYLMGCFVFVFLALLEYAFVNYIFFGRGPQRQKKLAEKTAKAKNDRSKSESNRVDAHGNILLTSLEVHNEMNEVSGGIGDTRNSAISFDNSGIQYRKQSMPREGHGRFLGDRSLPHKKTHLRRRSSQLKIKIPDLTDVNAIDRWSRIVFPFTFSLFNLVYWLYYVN
Protocol: (§1) The coding sequences of human α1 (GABRA1, NM_000806), β3 (GABRB3, NM_021912), and γ2 (GABRG2, NM_198904.2) GABAAR subunits were subcloned into the pcDNA3.1 expression vectors (Invitrogen, Waltham, MA, USA).
(§2) HEK293T cells (ATCC, CRL-11268) were cultured at 37 °C in a humidified 5% CO2 incubator and maintained in Dulbecco’s modified Eagle’s medium (Invitrogen) supplemented with 10% fetal bovine serum (Life Technologies, Carlsbad, CA, USA), and 100 IU/mL of penicillin/streptomycin (Life Technologies). For the expression experiments, 4 × 10^5 cells were transfected using polyethylenimine (PEI) reagent (40 kD, Polysciences, Warrington, PA, USA) at a DNA: to transfection reagent ratio of 1:2.5 and harvested 36 h after transfection. To express WT and variant α1β3γ2 receptors, a total of 3 µg of α1, β3, and γ2 (WT or mutant) subunit cDNAs were transfected at a ratio of 1:1:1 into 60 mm culture dishes. For the mock-transfected condition, an empty pcDNA3.1 vector was added for a final cDNA transfection amount of 3 μg. For the electrophysiology experiments, 2.5 × 10^5 cells were plated in 100 mm culture dishes and transfected after 24 h with 3 μg of cDNA of each α1, β3, γ2 (wild-type or mutant) subunit, using X-tremeGENE HP DNA transfection Reagent (Roche Diagnostics, Basel, Switzerland), following the manufacturer’s protocol. Recordings were obtained forty-eight hours after transfection.
(§3) Whole-cell patch clamp recordings were conducted according to the manufacturer’s standard procedure for the SyncroPatch 384 [31]. Whole-cell voltage-clamp recordings were performed at room temperature on HEK293T cells 48 h after transfection with GABAAR subunits, using the SyncroPatch 384PE (Nanion Technologies, Munich, Germany). Cells, at a concentration of 400,000 cells/mL, were harvested in suspension in external solution containing 140 mM of NaCl, 2 mM of CaCl2, 4 mM of KCl, 1 mM of MgCl2, 5 mM of glucose, and 10 mM of HEPES (pH 7.4 with NaOH, 298 mOsm). The cells were loaded in a multi-hole (4 holes per well) 384-well Nanion patch clamp (NPC) chip with a thick borosilicate glass bottom and an average resistance pore size of […]. Built-in electrophysiological protocols were used, and the data were digitized using PatchControl 384 (Nanion Technologies) application. Using PatchControl 384, electrophysiological parameters, such as seal resistance, capacitance, and series resistance, were determined for each well after the application of a test pulse, and subsequently monitored over time. […] The currents were normalized to the maximal response of each well, and the concentration–response curves were calculated from single-point additions. The EC50 values for each variant or wild-type receptor were calculated across multiple wells for each experimental condition.

[2] = biological target: T2, α1β3γ2 GABAA receptor, γ2W162X variant (Homo sapiens, UniProt P14867+P28472); assay: Automated patch clamp of GABA-elicited currents (SyncroPatch 384PE), γ2W162X
T2 construct: expressed in transfected cells; host or cells: HEK293T
T2 sequence (P14867 28-456): T1 sequence (P14867 28-456)
T2 sequence (P28472 1-473 isoform P28472-2): T1 sequence (P28472 1-473 isoform P28472-2)
Protocol: as §1, §2, §3

[3] = biological target: T3, α1β3γ2 GABAA receptor, wild-type (WT) γ2 subunit (Homo sapiens, UniProt P14867+P28472); assay: Automated patch clamp of GABA-elicited currents (SyncroPatch 384PE), WT receptor
T3 construct: expressed in transfected cells; host or cells: HEK293T
Protocol: as §1, §2, §3

[4] = 1 mM GABA for 5 ms, HEK293T, -80 mV
[5] = 10–90% rise time, 1 mM GABA for 5 ms, HEK293T

T3 sequence (P18507 40-475 partner, one chain of several): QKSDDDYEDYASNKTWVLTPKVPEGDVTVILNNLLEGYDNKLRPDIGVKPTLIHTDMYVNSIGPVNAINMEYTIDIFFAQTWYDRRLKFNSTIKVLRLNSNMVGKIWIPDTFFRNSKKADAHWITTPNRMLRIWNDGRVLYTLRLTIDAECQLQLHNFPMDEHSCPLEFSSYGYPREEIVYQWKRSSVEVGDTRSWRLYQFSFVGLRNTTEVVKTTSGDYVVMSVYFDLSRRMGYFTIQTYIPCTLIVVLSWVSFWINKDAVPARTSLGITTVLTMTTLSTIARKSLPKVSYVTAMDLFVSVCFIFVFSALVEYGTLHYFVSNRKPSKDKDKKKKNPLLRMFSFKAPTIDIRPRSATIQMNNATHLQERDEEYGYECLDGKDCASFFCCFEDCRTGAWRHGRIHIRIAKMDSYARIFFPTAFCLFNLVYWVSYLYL

- Deactivation [1, 4]: 350.1 ms
- IMAX (maximal GABA-evoked peak current) ([1]; 1 mM GABA for 5 ms, HEK293T): 0.85 nA
- IMAX variant/IMAX WT ([1]; 1 mM GABA): 42.52%
- Rise Time [1, 5]: 72.64 ms
- Deactivation [2, 4]: 533.8 ms
- IMAX (maximal GABA-evoked peak current) ([2]; 1 mM GABA for 5 ms, HEK293T): 0.48 nA
- IMAX variant/IMAX WT ([2]; 1 mM GABA): 24.07%
- Rise Time [2, 5]: 23.51 ms
- Deactivation [3, 4]: 199.9 ms
- IMAX (maximal GABA-evoked peak current) ([3]; 1 mM GABA for 5 ms, HEK293T): 2.00 nA
- IMAX variant/IMAX WT ([3]; 1 mM GABA): 100.00%
- Rise Time [3, 5]: 13.67 ms
SMILES: NCCCC(=O)O [GABA, γ-aminobutyric acid]
